Laboratory results published in ChEMBL document CHEMBL3397012, “Synthesis and biological evaluation of 4-nitroindole derivatives as 5-HT2A receptor antagonists” (Bioorg Med Chem, 2015).
pIC50: −log10 of the molar value.

Columns and labels:
[1] = target: T1, 5-hydroxytryptamine receptor 2A (Homo sapiens, UniProt P28223); assay: Displacement of [3H]Ketanserin from human recombinant 5-HT2A receptor expressed in CHO-K1 cells after 15 mins; assay type: cell-based
[2] = target: T2, 5-hydroxytryptamine receptor 6 (Homo sapiens, UniProt P50406); assay: Inhibition of human recombinant 5-HT6 receptor expressed in HEK293 cells assessed as inhibition of 5-HT-induced increase in […] pretreated at 10 uM for 10 mins by cAMP accumulation assay; assay type: functional, cell-based
[3] = target: T1, 5-hydroxytryptamine receptor 2A; assay: Displacement of [3H]Ketanserin from human recombinant 5-HT2A receptor expressed in CHO-K1 cells at 10 uM after 15 mins; assay type: cell-based
[4] = target: T3, 5-hydroxytryptamine receptor 2C (Homo sapiens) (UniProt P28335); assay: Displacement of [3H]Mesulergine from human recombinant 5-HT2C receptor expressed in CHO-K1 cells at 10 uM after 15 mins; assay type: cell-based
T3 sequence (whole entry): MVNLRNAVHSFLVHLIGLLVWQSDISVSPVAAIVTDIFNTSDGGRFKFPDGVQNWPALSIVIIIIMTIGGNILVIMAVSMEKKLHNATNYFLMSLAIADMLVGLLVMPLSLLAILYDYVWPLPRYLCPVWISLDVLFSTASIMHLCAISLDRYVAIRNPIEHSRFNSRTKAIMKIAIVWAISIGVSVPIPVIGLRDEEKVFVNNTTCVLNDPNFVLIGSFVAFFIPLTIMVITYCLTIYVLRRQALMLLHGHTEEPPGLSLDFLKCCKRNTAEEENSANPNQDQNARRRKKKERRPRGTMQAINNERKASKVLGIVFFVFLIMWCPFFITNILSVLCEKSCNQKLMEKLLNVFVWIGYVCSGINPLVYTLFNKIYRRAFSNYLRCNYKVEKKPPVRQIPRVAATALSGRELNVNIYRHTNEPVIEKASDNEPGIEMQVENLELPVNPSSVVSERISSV

[5] = target: T2, 5-hydroxytryptamine receptor 6; assay: Inhibition of human recombinant 5-HT6 receptor expressed in HEK293 cells assessed as inhibition of 5-HT-induced increase in […] pretreated for 10 mins by cAMP accumulation assay; assay type: functional, cell-based
[6] = target: T4, 5-hydroxytryptamine receptor 2C (Homo sapiens, UniProt P28335); assay: Displacement of [3H]Mesulergine from human recombinant 5-HT2C receptor expressed in CHO-K1 cells after 15 mins; assay type: cell-based
T4 sequence (P28335 whole entry): T3 sequence (whole entry)

T1 sequence (P28223 whole entry): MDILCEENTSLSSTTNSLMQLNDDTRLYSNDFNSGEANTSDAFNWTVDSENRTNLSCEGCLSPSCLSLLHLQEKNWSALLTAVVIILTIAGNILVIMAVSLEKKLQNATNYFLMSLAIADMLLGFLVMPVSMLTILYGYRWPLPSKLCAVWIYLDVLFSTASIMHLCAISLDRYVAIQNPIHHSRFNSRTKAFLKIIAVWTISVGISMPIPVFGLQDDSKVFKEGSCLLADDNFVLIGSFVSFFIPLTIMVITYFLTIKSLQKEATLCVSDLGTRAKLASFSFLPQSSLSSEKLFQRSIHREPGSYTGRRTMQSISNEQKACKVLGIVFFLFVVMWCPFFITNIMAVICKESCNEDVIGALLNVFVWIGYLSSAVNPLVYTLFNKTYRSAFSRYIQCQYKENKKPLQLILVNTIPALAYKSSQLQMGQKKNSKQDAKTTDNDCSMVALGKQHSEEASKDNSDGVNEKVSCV
T2 sequence (P50406 whole entry): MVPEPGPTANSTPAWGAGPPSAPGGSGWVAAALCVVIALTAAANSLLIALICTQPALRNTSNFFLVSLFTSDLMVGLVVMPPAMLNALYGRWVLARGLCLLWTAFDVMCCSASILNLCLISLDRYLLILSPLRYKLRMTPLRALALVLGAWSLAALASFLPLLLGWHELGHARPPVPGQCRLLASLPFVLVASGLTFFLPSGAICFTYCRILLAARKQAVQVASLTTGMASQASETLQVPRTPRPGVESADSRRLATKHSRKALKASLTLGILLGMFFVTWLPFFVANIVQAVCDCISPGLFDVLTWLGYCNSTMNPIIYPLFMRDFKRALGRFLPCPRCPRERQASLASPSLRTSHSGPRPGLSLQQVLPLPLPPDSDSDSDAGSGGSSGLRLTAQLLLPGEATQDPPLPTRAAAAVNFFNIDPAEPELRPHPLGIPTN

Compound	pIC50 [1]	inhibition [2]	inhibition [3]	inhibition [4]	pIC50 [5]	pIC50 [6]
CN(C)/C=N/N=C/c1cn(S(=O)(=O)c2ccc(I)cc2)c2cccc([N+](=O)[O-])c12	6.61	62.4%	85.2%	66.2%	5.20	
CN1CCN(c2nc3ccc(NS(=O)(=O)c4cccc5ccccc45)cc3s2)CC1					5.41	
CCCCc1ccc(S(=O)(=O)n2cc(/C=N/N=C/N(C)C)c3c([N+](=O)[O-])cccc32)cc1		11.3%				
COc1ccc(S(=O)(=O)n2cc(/C=N/N=C/N(C)C)c3c([N+](=O)[O-])cccc32)cc1	6.69	78.6%	90.7%	67.8%	6.13	5.98
CN(C)/C=N/N=C/c1cn(S(=O)(=O)c2ccccc2)c2cccc([N+](=O)[O-])c12	6.48	78.1%	83.9%	48.4%	5.74	
COc1ccc(OC)c(S(=O)(=O)n2cc(/C=N/N=C/N(C)C)c3c([N+](=O)[O-])cccc32)c1	6.32	78.2%	84.4%	48.1%	5.85	
CN(C)/C=N/N=C/c1cn(S(=O)(=O)c2ccc3ccccc3c2)c2cccc([N+](=O)[O-])c12	6.36	68%	88%	80.1%	5.60	6.33
CN(C)/C=N/N=C/c1cn(S(=O)(=O)c2ccc(F)cc2)c2cccc([N+](=O)[O-])c12	6.15	63.9%	94.2%	55.5%	5.30	
Cc1ccc(S(=O)(=O)n2cc(/C=N/N=C/N(C)C)c3c([N+](=O)[O-])cccc32)cc1	6.60	75.2%	88.3%	82.3%	5.67	6.32
COc1ccc(Cl)cc1S(=O)(=O)n1cc(/C=N/N=C/N(C)C)c2c([N+](=O)[O-])cccc21	5.80	87.7%	75.9%	44.9%	5.61	
CN(C)/C=N/N=C/c1cn(S(=O)(=O)c2cccc3ccccc23)c2cccc([N+](=O)[O-])c12	6.26	73.9%	94.6%	64.2%	5.53	
